In BindingDB's records for doi:10.1021/jm0603926 (Taigen Biotechnology, 2006):

Molecular target: Replicase polyprotein 1ab (Severe acute respiratory syndrome coronavirus, UniProt P0C6X7)
Test: 3CL Protease Enzyme Assays
Conditions: pH 7.5; 25 °C
Procedure: The effects of compound on enzyme activity were measured by using peptide cleavage assay. Cleavage products were resolved and analyzed with a reverse-phase HPLC. Quantification of peak areas was used to determine the extent of substrate conversion. Ki was calculated using the equation of Cheng and Prusoff.

| SMILES | Ki |
| --- | --- |
| CCOC(=O)/C=C/[C@H](C[C@@H]1CCNC1=O)NC(=O)[C@H](Cc1ccc(F)cc1)NC(=O)[C@@H](NC(=O)c1cc(C)on1)C(C)C [AG7088 analogue 2a] | > 10000 nM |
| C[C@H](OC(C)(C)C)[C@H](NC(=O)OCc1ccccc1)C(=O)N[C@@H](CC1CCCCC1)C(=O)N[C@H](C=O)C[C@@H]1CCNC1=O [benzyl N-[(1S,2S)-2-(tert-butoxy)-1-{[(1S)-2-cyclohexyl-1-{[(2S)-1-oxo-3-[(3S)-2-oxopyrrolidin-3-yl]propan-2-yl]carbamoyl}ethyl]carbamoyl}propyl]carbamate] | 53 nM |
